The IC50 is the point on the concentration scale where inhibition reaches its midpoint.

Test [1] addresses human Gal-3 (hGal-3) (Homo sapiens (Human), UniProt P17931). The test can be described thus: competitive binding assay: biotinylated hGal-3 binding to microplate-adsorbed asialofetuin (ASF). How it is done: If not explicitly mentioned otherwise, the inhibition data refer to the binding of biotinylated human Gal-3 (hGal-3).
(§1) Evaluation of Compound Inhibitory Activity (IC50)
The inhibitory activity of compounds is determined in competitive binding assays.
Briefly, compounds are serially diluted in DMSO (working dilutions).
(§2) Plates are incubated for 3 hours at 4° C., then washed with cold assay buffer (3×50 uL), incubated for 1 hour with 25 μL/well of a streptavidin-peroxidase solution (diluted in assay buffer to 80 ng/mL) at 4° C., followed by further washing steps with assay buffer (3×50 uL). Finally, 25 μL/well of ABTS substrate is added.
(§3) The calculated IC50 values may fluctuate depending on the daily assay performance. Fluctuations of this kind are known to those skilled in the art. IC50 values from several measurements are given as mean values.

Test [2] has as its target human Gal-1 (hGal-1) (Homo sapiens (Human), UniProt P09382). The test is described as follows: competitive binding assay: biotinylated hGal-1 binding to microplate-adsorbed asialofetuin (ASF). The settings on record: Table 15; read-out: IC50 (Galectin-1 inhibition). The method, then:
Inhibition data of the epimers R and S of selected Examples are also listed.
as §1
The inhibitory activity of compounds is determined in competitive binding assays. This spectrophotometric assay measures the binding of biotinylated human Gal-3 (hGal-3) or human Gal-1 (hGal-1), respectively, to a microplate-adsorbed glycoprotein, asialofetuin (ASF) (Proc Natl Acad Sci USA. 2013 Mar. 26; 110(13):5052-7.).
Briefly, compounds are serially diluted in DMSO (working dilutions). ASF-coated 384 well plates are supplemented with 22.8 μL/well of biotinylated hGal-3 or hGal-1 in assay buffer (i.e. 300-1000 ng/mL biotinylated hGal-3 or hGal-1) to which 1.2 μL of compound working dilutions are added and mixed.
as §2, §3

Read-outs that look alike come from different tables or passages of the source.

Sequence of human Gal-1 (hGal-1) (P09382 whole entry): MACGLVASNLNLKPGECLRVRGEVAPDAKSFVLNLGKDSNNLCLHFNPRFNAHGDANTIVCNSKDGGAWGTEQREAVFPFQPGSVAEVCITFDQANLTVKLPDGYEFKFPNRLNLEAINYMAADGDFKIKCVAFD
Sequence of human Gal-3 (hGal-3) (P17931 whole entry): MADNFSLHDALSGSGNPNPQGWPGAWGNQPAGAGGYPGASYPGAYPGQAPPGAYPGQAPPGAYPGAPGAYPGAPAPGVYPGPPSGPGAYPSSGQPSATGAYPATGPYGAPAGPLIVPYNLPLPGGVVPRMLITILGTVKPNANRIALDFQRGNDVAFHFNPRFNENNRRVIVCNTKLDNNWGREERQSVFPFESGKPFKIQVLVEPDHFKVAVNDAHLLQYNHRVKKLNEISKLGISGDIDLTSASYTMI

As to `OC[C@H]1O[C@@H](SC(c2ccccc2C(F)(F)F)C2(O)CCNCC2)[C@H](O)[C@@H](n2cc(-c3cc(F)c(F)c(F)c3)nn2)[C@H]1O` (stereo partly drawn) [Example 2.45.112., (2R,3R,4S,5R,6S)-2-(Hydroxymethyl)-6-(((4-hydroxypiperidin-4-yl)(2-(trifluoromethyl)phenyl)methyl)thio)-4-(4-(3,4,5-trifluorophenyl)-1H-1,2,3-triazol-1-yl)tetrahydro-2H-pyran-3,5-diol], the IC50 in test [1] (Gal-3 inhibition, binding of biotinylated hGal-3 to ASF, mean values, read-out: IC50) amounted to 130 nM; in test [2], 460 nM.

As for `CO[C@@H]1[C@@H](n2cc(-c3cc(F)c(F)c(F)c3)nn2)[C@@H](O)[C@@H](CO)O[C@H]1S[C@H](c1nccnc1C)C1(O)CCC(F)(F)CC1` [Example 2.44.129R.I., (2R,3R,4S,5R,6S)-6-(((R)-(4,4-Difluoro-1-hydroxycyclohexyl)(3-methylpyrazin-2-yl)methyl)thio)-2-(hydroxymethyl)-5-methoxy-4-(4-(3,4,5-trifluorophenyl)-1H-1,2,3-triazol-1-yl)tetrahydro-2H-pyran-3-ol [1,3-di-deoxy-1-((4,4-difluoro-1-hydroxy-cyclohexan-1-yl)-(3-(-methyl)pyrazin-2-yl)methyl-(R)-thio)-2-O-methyl-3-[4-(3,4,5-trifluorophenyl)-1H-1,2,3-triazol-1-yl]-b-D-galactopyranoside]], the IC50 is 50 nM in test [1] (Table 9, 2-OMe-Gal inhibitors, read-out: IC50 (Gal-3 inhibition)) and 300 nM in test [2].

For the compound `CO[C@@H]1[C@@H](n2cc(-c3ccc(F)c(F)c3)nn2)[C@@H](O)[C@@H](CO)O[C@H]1S[C@@H](c1ncccc1C)C1(O)CCC(F)(F)CC1` [Example 16.44.126S.I., (2R,3R,4S,5R,6S)-6-(((S)-(4,4-Difluoro-1-hydroxycyclohexyl)(3-methylpyridin-2-yl)methyl)thio)-4-(4-(3,4-difluorophenyl)-1H-1,2,3-triazol-1-yl)-2-(hydroxymethyl)-5-methoxytetrahydro-2H-pyran-3-ol], the 50% inhibitory concentration (IC50) in test [1] (Table 14, read-out: IC50 (Gal-3 inhibition)) was determined as 1870 nM; in test [2], 54200 nM.

For `CN1CCC(O)([C@@H](S[C@@H]2O[C@H](CO)[C@H](O)[C@H](n3cc(-c4cc(F)c(F)c(F)c4)nn3)[C@H]2O)c2ccccc2C(F)(F)F)CC1` [Example 2.40.112S., (2S,3R,4S,5R,6R)-2-(((S)-(4-Hydroxy-1-methylpiperidin-4-yl)(2-(trifluoromethyl)phenyl)methyl)thio)-6-(hydroxymethyl)-4-(4-(3,4,5-trifluorophenyl)-1H-1,2,3-triazol-1-yl)tetrahydro-2H-pyran-3,5-diol], the IC50 in test [1] (Table 5, read-out: IC50 (Gal-3 inhibition)) is 3950 nM; in test [2], 21700 nM.

For `OC[C@H]1O[C@@H](S[C@H](c2ccccc2Cl)C2(O)CCC(F)(F)CC2)[C@H](O)[C@@H](n2cc(-c3cc(F)c(F)c(F)c3)nn2)[C@H]1O` [Example 2.44.111R., (2S,3R,4S,5R,6R)-2-(((R)-(2-Chlorophenyl)(4,4-difluoro-1-hydroxycyclohexyl)methyl)thio)-6-(hydroxymethyl)-4-(4-(3,4,5-trifluorophenyl)-1H-1,2,3-triazol-1-yl)tetrahydro-2H-pyran-3,5-diol], the IC50 in test [2] amounted to 1060 nM.

In the case of `Cc1nc(C(S[C@@H]2O[C@H](CO)[C@H](O)[C@H](n3cc(-c4cc(F)c(F)c(F)c4)nn3)[C@H]2O)C(C)(C)O)c(C)s1` (stereo partly drawn) [Example 2.31.123., (2S,3R,4S,5R,6R)-2-((1-(2,5-Dimethylthiazol-4-yl)-2-hydroxy-2-methylpropyl)thio)-6-(hydroxymethyl)-4-(4-(3,4,5-trifluorophenyl)-1H-1,2,3-triazol-1-yl)tetrahydro-2H-pyran-3,5-diol], in test [2], the IC50 is 1740 nM.

Regarding `Cc1nc([C@@H](S[C@@H]2O[C@H](CO)[C@H](O)[C@H](n3cc(-c4cc(F)c(F)c(F)c4)nn3)[C@H]2O)C(C)(C)O)c(C)s1` [Example 2.31.123R., (2S,3R,4S,5R,6R)-2-(((R)-1-(2,5-Dimethylthiazol-4-yl)-2-hydroxy-2-methylpropyl)thio)-6-(hydroxymethyl)-4-(4-(3,4,5-trifluorophenyl)-1H-1,2,3-triazol-1-yl)tetrahydro-2H-pyran-3,5-diol], in test [2], the concentration for half-maximal inhibition (IC50) came out at 1190 nM.

`CC(C)Cc1c(C(S[C@@H]2O[C@H](CO)[C@H](O)[C@H](n3cc(-c4cc(F)c(F)c(F)c4)nn3)[C@H]2O)C2(O)CCC(F)(F)CC2)noc1C1CC1` (stereo partly drawn) [Example 2.44.131., (2S,3R,4S,5R,6R)-2-(((5-Cyclopropyl-4-isobutylisoxazol-3-yl)(4,4-difluoro-1-hydroxycyclohexyl)methyl)thio)-6-(hydroxymethyl)-4-(4-(3,4,5-trifluorophenyl)-1H-1,2,3-triazol-1-yl)tetrahydro-2H-pyran-3,5-diol]: the IC50 in test [2] was 220 nM.

Regarding `OC[C@H]1O[C@@H](S[C@@H](c2ccccc2Cl)C2(O)CCC(F)(F)CC2)[C@H](O)[C@@H](n2cc(-c3cc(F)c(F)c(F)c3)nn2)[C@H]1O` [Example 2.44.111S., (2S,3R,4S,5R,6R)-2-(((S)-(2-Chlorophenyl)(4,4-difluoro-1-hydroxycyclohexyl)methyl)thio)-6-(hydroxymethyl)-4-(4-(3,4,5-trifluorophenyl)-1H-1,2,3-triazol-1-yl)tetrahydro-2H-pyran-3,5-diol], in test [2], the IC50 was 47500 nM.

Turning to `CO[C@@H]1[C@@H](n2cc(-c3cnc(F)c(C)c3)nn2)[C@@H](O)[C@@H](CO)O[C@H]1SC(c1ncccc1C)C1(O)CCC(F)(F)CC1` (stereo partly drawn) [Example 24.44.126.I, (2R,3R,4S,5R,6S)-6-(((4,4-Difluoro-1-hydroxycyclohexyl)(3-methylpyridin-2-yl)methyl)thio)-4-(4-(6-fluoro-5-methylpyridin-3-yl)-1H-1,2,3-triazol-1-yl)-2-(hydroxymethyl)-5-methoxytetrahydro-2H-pyran-3-ol], the half-inhibitory concentration (IC50) in test [2] was 160 nM.

Turning to `CC(C)Cc1c([C@@H](S[C@@H]2O[C@H](CO)[C@H](O)[C@H](n3cc(-c4cc(F)c(F)c(F)c4)nn3)[C@H]2O)C2(O)CCC(F)(F)CC2)noc1C1CC1` [Example 2.44.131 R., (2S,3R,4S,5R,6R)-2-(((R)-(5-Cyclopropyl-4-isobutylisoxazol-3-yl)(4,4-difluoro-1-hydroxycyclohexyl)methyl)thio)-6-(hydroxymethyl)-4-(4-(3,4,5-trifluorophenyl)-1H-1,2,3-triazol-1-yl)tetrahydro-2H-pyran-3,5-diol], the IC50 in test [2] is 90 nM.

Turning to `Cc1nc([C@H](S[C@@H]2O[C@H](CO)[C@H](O)[C@H](n3cc(-c4cc(F)c(F)c(F)c4)nn3)[C@H]2O)C(C)(C)O)c(C)s1` [Example 2.31.123S., (2S,3R,4S,5R,6R)-2-(((S)-1-(2,5-Dimethylthiazol-4-yl)-2-hydroxy-2-methylpropyl)thio)-6-(hydroxymethyl)-4-(4-(3,4,5-trifluorophenyl)-1H-1,2,3-triazol-1-yl)tetrahydro-2H-pyran-3,5-diol], in test [2], the IC50 turned out to be 29400 nM.

With `CO[C@@H]1[C@@H](n2cc(-c3cc(F)c(F)c(F)c3)nn2)[C@@H](O)[C@@H](CO)O[C@H]1SC(c1ncccc1C)C1(O)CCC2(CCOCC2)CC1` (stereo partly drawn) [Example 2.72.126.I., 9-((((2S,3R,4S,5R,6R)-5-Hydroxy-6-(hydroxymethyl)-3-methoxy-4-(4-(3,4,5-trifluorophenyl)-1H-1,2,3-triazol-1-yl)tetrahydro-2H-pyran-2-yl)thio)(3-methylpyridin-2-yl)methyl)-3-oxaspiro[5.5]undecan-9-ol], the IC50 in test [2] was 730 nM.

In the case of `CO[C@@H]1[C@@H](n2cc(-c3cc(F)c(F)c(F)c3)nn2)[C@@H](O)[C@@H](CO)O[C@H]1S[C@H](c1ccccc1C(F)(F)F)[C@]1(O)CCOC(C)(C)C1` [Example 2.43.112RS.I., (2R,3R,4S,5R,6S)-6-(((R)-((S)-4-Hydroxy-2,2-dimethyltetrahydro-2H-pyran-4-yl)(2-(trifluoromethyl)phenyl)methyl)thio)-2-(hydroxymethyl)-5-methoxy-4-(4-(3,4,5-trifluorophenyl)-1H-1,2,3-triazol-1-yl)tetrahydro-2H-pyran-3-ol], the IC50 in test [2] came to 1300 nM.

Regarding `CO[C@@H]1[C@@H](n2cc(-c3cc(F)c(F)c(F)c3)nn2)[C@@H](O)[C@@H](CO)O[C@H]1S[C@H](c1ncccc1C)[C@@]1(O)CCOC(C)(C)C1` [Example 2.43.126RR.I., (2R,3R,4S,5R,6S)-6-(((R)-((R)-4-Hydroxy-2,2-dimethyltetrahydro-2H-pyran-4-yl)(3-methylpyridin-2-yl)methyl)thio)-2-(hydroxymethyl)-5-methoxy-4-(4-(3,4,5-trifluorophenyl)-1H-1,2,3-triazol-1-yl)tetrahydro-2H-pyran-3-ol], the IC50 in test [1] (Table 11, read-out: IC50 (Gal-3 inhibition)) came to 730 nM.
